# Test results reported in US8192962B2, “Processes for detecting toxic substances” (Daikin Industries, Ltd., priority 2001, dated 2012).
# Test system: Energy system protein genes
# Assay: DNA chip mRNA expression in yeast, energy system protein genes (Table 4)
# Type: cell-based, Saccharomyces cerevisiae S288C
# How it was run: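 Measured as treated-to-untreated fluorescence ratio on a full-genome yeast DNA chip. Cells (S288C, YPD, 25° C.) were exposed in log phase for two hours to one chemical, dosed to curb growth without killing.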
structure (smiles),measurement,setting,value
"C=CC=O [(14), acrolein]",The level of expressed mRNA in the presence of chemical substance/The level of expressed mRNA in the absence of chemical substance,yeast gene YJR048W,2.5
same,The level of expressed mRNA in the presence of chemical substance/The level of expressed mRNA in the absence of chemical substance,"yeast gene YJR121W, cells incubated two hours with the chemical substance",0.7
same,The level of expressed mRNA in the presence of chemical substance/The level of expressed mRNA in the absence of chemical substance,yeast gene YJR155W,9.4
same,The level of expressed mRNA in the presence of chemical substance/The level of expressed mRNA in the absence of chemical substance,"yeast gene YKL016C, cells incubated two hours with the chemical substance",1.6
same,The level of expressed mRNA in the presence of chemical substance/The level of expressed mRNA in the absence of chemical substance,"yeast gene YKL060C, cells incubated two hours with the chemical substance",0.8
same,The level of expressed mRNA in the presence of chemical substance/The level of expressed mRNA in the absence of chemical substance,"yeast gene YKL141W, cells incubated two hours with the chemical substance",1.4
same,The level of expressed mRNA in the presence of chemical substance/The level of expressed mRNA in the absence of chemical substance,"yeast gene YKL148C, cells incubated two hours with the chemical substance",0.8
same,The level of expressed mRNA in the presence of chemical substance/The level of expressed mRNA in the absence of chemical substance,yeast gene YKL150W,1.4
same,The level of expressed mRNA in the presence of chemical substance/The level of expressed mRNA in the absence of chemical substance,"yeast gene YKR009C, cells incubated two hours with the chemical substance",1.0
same,The level of expressed mRNA in the presence of chemical substance/The level of expressed mRNA in the absence of chemical substance,"yeast gene YKR058W, cells incubated two hours with the chemical substance, 25° C., YPD medium",1.3
same,The level of expressed mRNA in the presence of chemical substance/The level of expressed mRNA in the absence of chemical substance,yeast gene YKR097W,2.1
same,The level of expressed mRNA in the presence of chemical substance/The level of expressed mRNA in the absence of chemical substance,"yeast gene YLL041C, cells incubated two hours with the chemical substance",1.2
same,The level of expressed mRNA in the presence of chemical substance/The level of expressed mRNA in the absence of chemical substance,"yeast gene YLR038C, cells incubated two hours with the chemical substance",1.6
same,The level of expressed mRNA in the presence of chemical substance/The level of expressed mRNA in the absence of chemical substance,"yeast gene YLR044C, cells incubated two hours with the chemical substance",0.5
same,The level of expressed mRNA in the presence of chemical substance/The level of expressed mRNA in the absence of chemical substance,"yeast gene YLR134W, cells incubated two hours with the chemical substance",0.6
same,The level of expressed mRNA in the presence of chemical substance/The level of expressed mRNA in the absence of chemical substance,"yeast gene YLR258W, cells incubated two hours with the chemical substance",1.2
same,The level of expressed mRNA in the presence of chemical substance/The level of expressed mRNA in the absence of chemical substance,"yeast gene YLR284C, cells incubated two hours with the chemical substance",1.3
same,The level of expressed mRNA in the presence of chemical substance/The level of expressed mRNA in the absence of chemical substance,"yeast gene YLR295C, cells incubated two hours with the chemical substance, 25° C., YPD medium",1.2
same,The level of expressed mRNA in the presence of chemical substance/The level of expressed mRNA in the absence of chemical substance,"yeast gene YLR304C, cells incubated two hours with the chemical substance",0.7
same,The level of expressed mRNA in the presence of chemical substance/The level of expressed mRNA in the absence of chemical substance,yeast gene YLR345W,1.5
same,The level of expressed mRNA in the presence of chemical substance/The level of expressed mRNA in the absence of chemical substance,"yeast gene YLR354C, cells incubated two hours with the chemical substance",0.9
same,The level of expressed mRNA in the presence of chemical substance/The level of expressed mRNA in the absence of chemical substance,"yeast gene YLR377C, cells incubated two hours with the chemical substance",2.9
same,The level of expressed mRNA in the presence of chemical substance/The level of expressed mRNA in the absence of chemical substance,"yeast gene YLR395C, cells incubated two hours with the chemical substance",1.7
same,The level of expressed mRNA in the presence of chemical substance/The level of expressed mRNA in the absence of chemical substance,yeast gene YML087C,2.1
same,The level of expressed mRNA in the presence of chemical substance/The level of expressed mRNA in the absence of chemical substance,"yeast gene YML120C, cells incubated two hours with the chemical substance",0.8
same,The level of expressed mRNA in the presence of chemical substance/The level of expressed mRNA in the absence of chemical substance,"yeast gene YML129C, cells incubated two hours with the chemical substance",1.4
same,The level of expressed mRNA in the presence of chemical substance/The level of expressed mRNA in the absence of chemical substance,"yeast gene YMR073C, cells incubated two hours with the chemical substance",2.0
same,The level of expressed mRNA in the presence of chemical substance/The level of expressed mRNA in the absence of chemical substance,yeast gene YMR118C,0.9
same,The level of expressed mRNA in the presence of chemical substance/The level of expressed mRNA in the absence of chemical substance,"yeast gene YMR205C, cells incubated two hours with the chemical substance",0.5
same,The level of expressed mRNA in the presence of chemical substance/The level of expressed mRNA in the absence of chemical substance,"yeast gene YMR261C, cells incubated two hours with the chemical substance",0.6
same,The level of expressed mRNA in the presence of chemical substance/The level of expressed mRNA in the absence of chemical substance,"yeast gene YMR267W, cells incubated two hours with the chemical substance, 25° C., YPD medium",1.0
same,The level of expressed mRNA in the presence of chemical substance/The level of expressed mRNA in the absence of chemical substance,"yeast gene YMR323W, cells incubated two hours with the chemical substance",1.2
same,The level of expressed mRNA in the presence of chemical substance/The level of expressed mRNA in the absence of chemical substance,yeast gene YNL071W,0.8
same,The level of expressed mRNA in the presence of chemical substance/The level of expressed mRNA in the absence of chemical substance,"yeast gene YNL202W, cells incubated two hours with the chemical substance",1.0
same,The level of expressed mRNA in the presence of chemical substance/The level of expressed mRNA in the absence of chemical substance,yeast gene YNL241C,1.1
same,The level of expressed mRNA in the presence of chemical substance/The level of expressed mRNA in the absence of chemical substance,yeast gene YNL331C,7.5
same,The level of expressed mRNA in the presence of chemical substance/The level of expressed mRNA in the absence of chemical substance,"yeast gene YOL086C, cells incubated two hours with the chemical substance",0.6
same,The level of expressed mRNA in the presence of chemical substance/The level of expressed mRNA in the absence of chemical substance,yeast gene YOL165C,9.1
same,The level of expressed mRNA in the presence of chemical substance/The level of expressed mRNA in the absence of chemical substance,"yeast gene YOR142W, cells incubated two hours with the chemical substance",0.8
same,The level of expressed mRNA in the presence of chemical substance/The level of expressed mRNA in the absence of chemical substance,"yeast gene YOR178C, cells incubated two hours with the chemical substance",1.0
same,The level of expressed mRNA in the presence of chemical substance/The level of expressed mRNA in the absence of chemical substance,"yeast gene YOR388C, cells incubated two hours with the chemical substance",1.3
same,The level of expressed mRNA in the presence of chemical substance/The level of expressed mRNA in the absence of chemical substance,"yeast gene YPL031C, cells incubated two hours with the chemical substance",0.9
same,The level of expressed mRNA in the presence of chemical substance/The level of expressed mRNA in the absence of chemical substance,"yeast gene YPL061W, cells incubated two hours with the chemical substance",0.6
same,The level of expressed mRNA in the presence of chemical substance/The level of expressed mRNA in the absence of chemical substance,yeast gene YPL088W,1.6
same,The level of expressed mRNA in the presence of chemical substance/The level of expressed mRNA in the absence of chemical substance,yeast gene YPL171C,9.3
same,The level of expressed mRNA in the presence of chemical substance/The level of expressed mRNA in the absence of chemical substance,yeast gene YPL240C,0.7
same,The level of expressed mRNA in the presence of chemical substance/The level of expressed mRNA in the absence of chemical substance,"yeast gene YPL262W, cells incubated two hours with the chemical substance",1.2
same,The level of expressed mRNA in the presence of chemical substance/The level of expressed mRNA in the absence of chemical substance,"yeast gene YPL275W, cells incubated two hours with the chemical substance",1.0
same,The level of expressed mRNA in the presence of chemical substance/The level of expressed mRNA in the absence of chemical substance,"yeast gene YPL276W, cells incubated two hours with the chemical substance",0.9
same,The level of expressed mRNA in the presence of chemical substance/The level of expressed mRNA in the absence of chemical substance,"yeast gene YPR048W, cells incubated two hours with the chemical substance",1.2
same,The level of expressed mRNA in the presence of chemical substance/The level of expressed mRNA in the absence of chemical substance,"yeast gene YPR184W, cells incubated two hours with the chemical substance",1.3
